In patent publication US20250269018A1, “COMBINED CANCER THERAPY WITH AN EPITHELIAL CELL ADHESION MOLECULE (EPCAM) INHIBITOR AND A HEPATOCYTE GROWTH FACTOR RECEPTOR (HGFR) INHIBITOR” (ACADEMIA SINICA, priority 2021, published 2025):
“Also recorded” adds a separate entry of the source.

System: HCT116 cells
Test: Transwell migration/invasion and wound healing assay, HCT116
Type: cell-based, human
Details: for EpEX-induced migration and invasion: HCT116 cells, discussion statement; for EpEX-induced invasion: 50 nM EpEX, LY 25 μM, U0 20 μM, PF 10 μM, Transwell with matrigel, FIG. 4K
Protocol: FIGS. 3A to 3H. EpEX induces the activation of ERK and FAK-AKT signaling pathway. Wild type (WT) or EpCAM knockout (KO) HCT116 cells after EpEX-His treatment. (FIG. 3A) The levels of phosphorylated HGFR, AKT, FAK, GSK3β, ERK, ADAM17, and presenilin 2 were assayed by Western blotting. (FIG. 3B) Colony formation was examined by crystal violet staining. (FIG. 3C) HCT116 cells were treated with TAPI (ADAM17 inhibitor) or DAPT (γ-secretase inhibitor) for 24 hours, and the phosphorylation of HGFR, AKT, and ERK was analyzed by Western blotting, and EpEX protein level in culture medium was examined by immunoprecipitation and Western blotting. (FIG. 3D) HCT116 and HT29 cells were starved for 16 h, then treated with EpEX-His (50 nM) and HGF (0.5 nM) for 15 min. The levels of phosphorylated HGFR, AKT, and ERK were examined by Western blotting. (FIG. 3E) HCT116 cells were starved for 16 h, then treated with 50 nM EpEX-His for 15 min. HGFR inhibitor SU11274 (SU, 10 μM), AKT inhibitor LY294002 (LY, 25 μM), ERK inhibitor U0126 (U0, 20 μM), or FAK inhibitor PF-562271 (PF, 10 μM) were applied 1 h before EpEX treatment. Phosphorylation of AKT, ERK, and FAK was examined by Western blotting. (FIG. 3F) HCT116 cells were starved for 16 h, then treated with 50 nM EpEX, and SU (10 μM), LY (25 μM), U0 (20 μM) or PF (10 μM). Colony formation was examined by crystal violet staining after treatment for 7 days. The relative colony densities are shown. Migration ability was examined by the (FIG. 3G) wound healing assay at the indicated times. (FIG. 3H) The numbers of migration cell was assessed by a Transwell after treatment for 24 h.
FIGS. 4A to 4L. EpEX induces EMT and invasion by stabilizing β-catenin and Snail through decreasing GSK3β activity. (FIG. 4A) The protein expression of EMT markers and regulators was detected by Western blotting in Wild-type (WT) or EpCAM knockout (KO) HCT116 cells after EpEX treatment. (FIG. 4B) Cell invasion was examined by Transwell chamber assay with matrigel. (FIG. 4C) WT or KO HCT116 and HT29 cells were starved for 16 h, then treated with 0.5 nM of HGF with 2% FBS for 24 h. EMT-related protein expression (E-cadherin, vimentin, and Snail) was examined by Western blotting. (FIG. 4D) WT or KO HCT116 and HT29 cells were treated with HGF (0.5 nM) for 24 h. Invasion by HCT116 and HT29 cells was examined by Transwell chamber assay with matrigel. (FIG. 4E) HCT116 and HT29 cells were starved for 16 h, then treated with 0.5 nM of HGF with 2% FBS for 24 h. EMT-related protein expression (E-cadherin, Vimentin, and Snail) was examined by Western blotting. (FIG. 4F) HCT116 and HT29 cells were starved for 16 h, then treated with 0.5 nM of HGF with 2% FBS for 24 h. Cell invasion was assessed by a Transwell assay with matrigel. (FIG. 4G) HCT116 cells after shLuc and shHGFR treatment were treated with 50 nM of EpEX-His. HCT116 cells after shLuc and shHGFR treatment were treated with 50 nM of EpEX-His with 2% FBS for 24 h. EMT-related protein expression (E-cadherin, Vimentin, and Snail) was examined by Western blotting. (FIG. 4H) Cell invasion was examined by Transwell chamber assay with matrigel. (FIG. 4I) Starved HCT116 cells were treated SU (10 μM) for 1 h, followed by treatment with EpEX-His (50 nM) for 24 h. Phosphorylated GSK3β, active-β-catenin, and Snail were detected by Western blotting. (FIG. 4J) HCT116 cells were starved for 16 h, then treated with 50 nM EpEX-His for 24 min. AKT inhibitor LY294002 (25 μM), ERK inhibitor U0126 (20 μM), or PF-562271 (10 μM) were applied 1 h before EpEX treatment. Protein expression of phosphorylated GSK3β and Snail was examined by Western blotting. (FIG. 4K) HCT116 cells were starved for 16 h, then treated with 50 nM EpEX, and SU (10 μM), LY (25 μM), UO (20 μM) or PF (10 μM). Cell invasion was examined by Transwell chamber assay with matrigel. (FIG. 4L) Protein expression was analyzed by Western blotting in EpEX-His (50 nM) treated HCT116 cells after treatment with or without 2 μM GSK3β inhibitor (BIO) for 24 h. […]

Molecule | EpEX-induced migration and invasion | EpEX-induced invasion (HCT116) | invasion and migration activities of HCT116 cells (EpAb2-6 10 μg/ml, wound healing, Transwell with matrigel 24 h) | effects of EpAb2-6 on invasion and migration when treated with HGF after EpAb2-6 (HCT116, EpAb2-6 10 μg/ml and HGF 0.5 nM, FIGS. 6C and 6D)
Cc1[nH]c(C=C2C(=O)Nc3ccc(S(=O)(=O)N(C)c4cccc(Cl)c4)cc32)c(C)c1C(=O)N1CCN(C)CC1 (stereo in doubt) [SU11274, (3Z)-N-(3-Chlorophenyl)-3-({3,5-dimethyl-4-[(4-methylpiperazin-1-yl)carbonyl]-1H-pyrrol-2-yl}methylene)-N-methyl-2-oxo-2,3-dihydro-1H-indole-5-sulfonamide] | attenuate EpEX-induced migration and invasion |  |  | 
CN(c1ncccc1CNc1nc(Nc2ccc3c(c2)CC(=O)N3)ncc1C(F)(F)F)S(C)(=O)=O [PF-562271] | attenuate EpEX-induced migration and invasion | suppressed |  | 
N#CC(=C(/N)Sc1ccccc1N)/C(C#N)=C(\N)Sc1ccccc1N [U0126] | attenuate EpEX-induced migration and invasion | suppressed |  | 
EpAb2-6: anti-EpCAM neutralizing monoclonal antibody targeting EpEX; VH SEQ ID NO: 15, VL SEQ ID NO: 16 (antibody, listed as Homo sapiens, V domains shown) VH: VKLQESGPELKKPGETVKISCKASGYTFTDYSMHWVKQAPGKGLKWMGWINTETGEPTYADDFKGRFAFSLETSASTAYLQINNLKNEDTATYFCARTAVYWGQGTTVTVSS VL: DIQMTQSPSSLSASLGERVSLTCRASQEISVSLSWLQQEPDGTIKRLIYATSTLDSGVPKRFSGSRSGSDYSLTISSLESEDFVDYYCLQYASYPWTFGGGTKLEIKRADAAPTVS |  |  | significantly reduced; also recorded: attenuate the invasion and migration capacity of HCT116 cells | partially blunted
